Laboratory results reported in patent US20070111251A1, “Chemical address tags” (priority 2003, published 2007).

Tests used:
[1] = pyridine derivatives; cited from earlier work
[2] = test system: HeLa cells; experiment: Kinetic imaging of NBD-triazine probe uptake and sequestration, fitted to nested two-compartment transport model; assay type: cell-based; details: median over optimal solutions within 5% of the best fit
In short: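 HeLa cells (3000/well, plated 24 h earlier) imaged live with 10 μM NBD probe in RPMI containing 1.0 mM bromophenol blue, about 2 h for influx, then washed and imaged 6 h for efflux, every ~7 min. Perinuclear pixel-intensity CV fitted to a nested two-compartment transport model by simulated annealing.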

[3] = test system: dsDNA; experiment: Fluorometric titration of styryl dyes with dsDNA in buffer solution; assay type: binding, Salmon; details: for em^free / Øf^free: free dye; for fluorescence emission increase with DNA versus free compound: highest concentration of DNA tested, 50 μg mL^−1; for Øf^DNA: quantum yield with dsDNA; for Øf^free: quantum yield; for max: spectrophotometric properties of the styryl dyes; for em^DNA: with dsDNA
Experimental: In some embodiments, the synthesis of compounds B was achieved by refusing with the pyridine derivatives and iodomethane for 2 hours, and compound B crystallized out in ethyl acetate. The condensation with aldehydes (A) and compound B was performed by refusing with piperidine for 2 hours in EtOH. After cooling to room temperature, the crystallized compounds were filtered and washed with ethyl acetate. With these purified compounds, the fluorescence intensity change upon addition of DNA was tested.
With a series of concentrations of dsDNA (double stranded DNA) added to compound 1, a linear increase in the fluorescence intensities was observed. (FIG. 17). […] At the highest concentration of DNA tested (50 μg mL^−1), the fluorescence emission reached up to 13.3 times higher than that of the free compound. Briefly, FIGS. 18A-18C show the absorption and fluorescence spectra of compounds 1, 2, and 3 (Dye 1, 2, 3 [50 μM], dsDNA [50 μg mL^−1]). A blue shift of 17 nm in the emission wavelength upon DNA addition was observed, without a significant excitation wavelength shift. The structure of compound 1 includes a 2,4,5-trimethoxy group from the benzaldehyde moiety and a unique adamantyl pyridinium functionality.
Unless otherwise noted, starting materials and solvents were purchased from commercial suppliers, and used without purification. Ethanol (EtOH) and ethyl acetate (EA) from Acros Organics (Fisher Scientific, UK) were used as the reaction solvents without any prior purification. Salmon testes solid dsDNA, and phosphate buffered saline (PBS) (NaCl 120 mM, KCl 2.7 mM, and phosphate buffer 10 mM, pH=7.4 at 24° C.) were purchased from Sigma-Aldrich and needed no further purification. Fluorescence intensities were measured by a Jobin Yvon Horiba FluoroMAX-3 fluorimeter (Horiba Group, Kyoto, Japan) with a quartz cuvette cell (10 mm×10 mm×4.5 cm; Starna (Atascadero, Calif.). ^1H-NMR (200 MHz) spectra were determined on Gemini 200 spectrometer (Varian, Inc., Palo Alto, Calif.). Chemical shifts were reported in parts per million (ppm) relative to the line of a singlet at 2.50 ppm for DMSO-d6 and coupling constants (j) are in Hertz (Hz). The following abbreviations are used for spin multiplicity: s=singlet, d=doublet, t=triplet, m=multiplet, and b=broad. All dye products were identified by LC-MS from Agilent Technology (Palo Alto, Calif.), using a C18 column (20×4.0 mm), with 4 minutes elution using a gradient of 5-95% CH3CN (containing 1% acetic acid)-H2O (containing 1% acetic acid), with UV detector at %=400 nm and an electrospray ionization source.

[4] = test system: live UACC-62 human melanoma cells; experiment: Cell-based screening of extended styryl library: nuclear staining of live cells; details: live UACC-62 cells; compounds 1-3 at 500 μM
Text: In one preferred embodiment, an extended styryl dye library, composed of 855 compounds, was synthesized (See, Example 7) and screened for the subcellular localization in live […] human melanoma cells on glass bottom 96-well plates by the combinatorial library synthesis methods disclosed herein. […] The compounds were resynthesized on large scale for further study. (FIG. 16).
Therefore, both 2,4,5-trunethoxy groups and the adamantyl group are important in the specific interaction of compound 1 and DNA. The three related compounds 1, 2, and 3 were incubated in live UACC-62 human melanoma cells to compare their nuclear localization properties. (FIG. 19).

Row | Structure (SMILES) | median Pap(cyto) (apparent partition coefficient between extracellular medium and cytosol) [2] | median Pap(ves) (apparent partition coefficient between cytosol and intracellular vesicles, k(ves)in/k(ves)out) [2] | em^free [3] [nm] | Øf^DNA [3] | Øf^free [3] | max [3] [nm] | em^DNA [3] [nm] | pKa [1] | Øf^DNA/Øf^free [3] | fluorescence emission increase with DNA versus free compound [3] [fold] | nuclear staining / nuclear localization in live cells [4] | further results
1 | COc1cc(OC)c(OC)cc1C=Cc1cc[n+](C)cc1.[I-] [Compound 4, 1-Methyl-4[2-(2,4,5-trimethoxy-phenyl)-vinyl]pyridinium iodide] | – | – | – | – | – | – | – | – | – | – | – | fluorescence intensity change upon addition of DNA [3]: significantly reduced the DNA response
2 | COc1cc(OC)c(OC)cc1C=Cc1cc[n+](C23CC4CC(CC(C4)C2)C3)cc1.[Br-] [Compound 1, 2-[4-[5-(trimethyoxy)phenyl]-ethenyl-1-adamantyl]-4-methylpyridinium bromide] | – | – | 583 | 0.0032 | 0.00024 | 413 | 566 | – | 13.3 | 13.3 | clearly stains the nucleus of live cells more selectively | blue shift in the emission wavelength upon DNA addition [3]: 17 nm; emission wavelength [3]: 583 nm; excitation wavelength [3]: 413 nm; fluorescence intensity change upon addition of DNA [3]: strong fluorescence increase; linear fluorescence response range ([3]; in PBS, without self-quenching or wavelength shifts): 0.05 to 100 µM
3 | COc1cc(C=Cc2cc[n+](C34CC5CC(CC(C5)C3)C4)cc2)cc(OC)c1OC.[Br-] [Compound 2] | – | – | 553 | 0.022 | 0.0051 | 366 | 520 | – | 4.3 | 4.3 | stronger fluorescence backgrounds and spread throughout the cytoplasm | –

The next lines start with results.

Row | median Pap(cyto) (apparent partition coefficient between extracellular medium and cytosol) [2] | median Pap(ves) (apparent partition coefficient between cytosol and intracellular vesicles, k(ves)in/k(ves)out) [2] | em^free [3] [nm] | Øf^DNA [3] | Øf^free [3] | max [3] [nm] | em^DNA [3] [nm] | Structure (SMILES) | pKa [1] | Øf^DNA/Øf^free [3] | fluorescence emission increase with DNA versus free compound [3] [fold] | nuclear staining / nuclear localization in live cells [4] | further results
4 | 15351.10 | 100.42 | – | – | – | – | – | COc1cccc(CNc2nc(NCCCCCCNc3ccc([N+](=O)[O-])c4nonc34)nc(NCCc3ccccn3)n2)c1 [Compound B9] | ~6.0 | – | – | – | –
5 | – | – | 491 | 0.0037 | 0.0024 | 370 | 592 | COc1ccc(C=Cc2cc[n+](C34CC5CC(CC(C5)C3)C4)cc2)c(OC)c1OC.[Br-] [Compound 3] | – | 1.5 | 1.5 | stronger fluorescence backgrounds and spread throughout the cytoplasm | –
6 | 0.06 | 99497.01 | – | – | – | – | – | COc1ccc(CCNc2nc(NCCCCCCNc3ccc([N+](=O)[O-])c4nonc34)nc(NCCc3ccccn3)n2)cc1 [Compound D9] | ~6.0 | – | – | – | –
7 | 2989.27 | 2940.20 | – | – | – | – | – | O=[N+]([O-])c1ccc(NCCCCCCNc2nc(NCCc3ccccn3)nc(NCCC(c3ccccc3)c3ccccc3)n2)c2nonc12 [Compound F9] | ~6.0 | – | – | – | –
